Reference: PMC6925188, “PBRM1 acts as a p53 lysine-acetylation reader to suppress renal tumor growth” (Nature Communications, 2019)

Columns and labels:
PBRM1 binding to CDKN1A = test: ChIP-qPCR, Flag antibody (Flag-PBRM1), CDKN1A gene, RCC4 cells; format: cell-based; parameters: unit not given here; conditions: 100 μM, 24 h
Protocol: (§1) Lysates were analyzed by immunoblots. c RCC4 cells with or without p53 KO were transfected with vector or Flag-PBRM1 at the indicated amounts. […] Cells were harvested for RT-qPCR (g) or ChIP followed by qPCR (h). […] Representative data is shown in i. Quantification of cell cycle phase is shown in j. Source data are provided as a Source Data file.
ChIP assays were performed with the Pierce Agarose ChIP Kit (26156, Thermo Scientific) according to the manufacturer’s instructions with minor revisions. In brief, samples were crosslinked with 1% paraformaldehyde and halted by 125 mM glycine. After washing twice with ice-cold PBS, cells were harvested and suspended in Lysis Buffer 1 and incubated on ice for 10 min. 1 × 10^7 nuclei were resuspended in 500 μl MNase Digestion Buffer containing 6.25 U Micrococcal Nuclease and incubated at 37 °C for 15 min. After the reaction was stopped, nuclei were pelleted by centrifugation and resuspended in 250 μl Lysis Buffer 2. Nuclei were sonicated at 10% amplitude for 10 s twice and incubated on ice for 30 min. After centrifugation, 50 μl supernatant containing the digested chromatin from 2 × 10^6 nuclei was diluted in 1× IP Dilution Buffer and incubated with antibodies (normal rabbit IgG for control, 1 μg FL393 + 1 μg DO-1 for p53 or 2 μg Flag M2 for Flag-PBRM1) overnight at 4 °C. […] of ChIP Grade Protein A/G Plus Agarose was added and incubated for 1 h at 4 °C. The agarose resins were washed once with IP Wash Buffer 1, twice with IP Wash Buffer 2 and once with IP Wash Buffer 3. 150 μl 1× IP Elution Buffer was added to the washed resin and incubated at 65 °C for 30 min with shaking. The eluate was treated with Proteinase K and DNA was extracted with columns provided in the kit.

RCC4 cells = conditions: 100 μM etoposide
Protocol: as §1
After washing with ice-cold PBS, cells were scraped on ice and centrifuged at 10,000 × g for 1 min at 4 °C. For immunoblot analysis, cell pellets were lysed in 1% SDS containing a protease inhibitor cocktail followed by sonication with a FB50 sonic dismembrator (Fisher Scientific) at 20% amplitude for 15 s twice. After centrifuging for 10 min at 14,000 × g, the supernatants were combined with 5X SDS loading buffer (5% mercaptoethanol, 0.05% Bromophenol blue, 30% glycerol, 10% SDS, 250 mM Tris-HCl (pH 6.8)), boiled for 5 min and used in SDS-PAGE. After standard western blot procedures, the blots were developed using the ImageQuant LAS 4000 (GE healthcare Life Sciences) or ChemiDoc MP Imaging System (Bio-rad) with HyGLO™ Chemiluminescent HRP Detection Reagent (E2500, Denville Scientific) or Immobilon™ Western Chemiluminescent HRP Substrate (WBKLS0500, Millipore). […]
the indicated times. Lysates were analyzed via immunoblots. b. […]
were analyzed by immunoblots. c. […]
Lysates were analyzed via immunoblots. e. […]
Lysates were analyzed via immunoblots. f, g, h. […]

endogenous PBRM1 and p53 = test: Endogenous p53 immunoprecipitation, HEK293 cells; format: cell-based, human; conditions: 50 μM, 8 h
Excerpt: Fig. 1 PBRM1 and p53 display a physical association that is enhanced after DNA damage. a U2OS cells (left) and HEK293T cells (right) were transfected with vector or Flag-PBRM1 and harvested for immunoprecipitation with Flag-M2 beads and elution with 3X Flag peptide. […] Lysates were subjected to immunoprecipitation with Flag-M2 beads. […] Lysates were immunoprecipitated with p53 antibody. The bound PBRM1 and p53 were examined by immunoblots. Source data are provided as a Source Data file.

Ren-01 PBRM1 KO cells = test: Immunoblot of p53 targets, Ren-01 PBRM1 KO cells; format: cell-based; conditions: 50 μM etoposide
Protocol: The band intensity of indicated protein was measured with Bio-rad Image Lab 4.1, and the relative ratios were calculated over the signal intensity of Vinculin in the corresponding lanes. c–e. Nude mice xenograft analyses were performed with Ren-01 PBRM1 KO cells expressing GFP (left flank) or PBRM1 (right flank). Representative photographs of a mouse (c, top) and tumors (c, bottom). Tumors were excised and weighed, and data are presented as mean ± SEM (d). p-values were calculated using the paired two-tailed Student’s t-test. Tumors were stained for PBRM1 and p21 expression via IHC (e). Scale bar: 200 μm. f–h Nude mice xenograft analyses were performed with Ren-01 PBRM1 KO cells expressing wild-type PBRM1 (left flank) or the BD4* mutant PBRM1 (right flank). Tumors were excised and weighed, and data are presented as mean ± SEM (g). p-values were calculated using the paired two-tailed Student’s t-test. Representative photographs of a mouse (f, top) and tumors (f, bottom). Tumors were stained for PBRM1 and p21 expression via IHC analysis (h). Scale bar: 200 μm. Source data are provided as a Source Data file.
After washing with ice-cold PBS, cells were scraped on ice and centrifuged at 10,000 × g for 1 min at 4 °C. […]

COc1cc([C@@H]2c3cc4c(cc3[C@@H](O[C@@H]3O[C@@H]5CO[C@@H](C)O[C@H]5[C@H](O)[C@H]3O)[C@H]3COC(=O)[C@H]23)OCO4)cc(OC)c1O [Etoposide]
Flag ChIP at CDKN1A-RE1 (PBRM1 binding to CDKN1A; RCC4-GFP, assay 1): 0.0131 | Flag ChIP at CDKN1A-TSS (PBRM1 binding to CDKN1A; RCC4-GFP, assay 1): 0.013 | Flag ChIP at CDKN1A-intron (PBRM1 binding to CDKN1A; RCC4-GFP, assay 1): 0.0279 | Flag ChIP at CDKN1A-RE1 (PBRM1 binding to CDKN1A; RCC4-GFP, assay 2): 0.0381 | Flag ChIP at CDKN1A-TSS (PBRM1 binding to CDKN1A; RCC4-GFP, assay 2): 0.0086 | Flag ChIP at CDKN1A-intron (PBRM1 binding to CDKN1A; RCC4-GFP, assay 2): 0.0296 | Flag ChIP at CDKN1A-RE1 (PBRM1 binding to CDKN1A; RCC4-GFP, assay 3): 0.0109 | Flag ChIP at CDKN1A-TSS (PBRM1 binding to CDKN1A; RCC4-GFP, assay 3): 0.0269 | Flag ChIP at CDKN1A-intron (PBRM1 binding to CDKN1A; RCC4-GFP, assay 3): 0.0971 | Flag ChIP at CDKN1A-RE1 (PBRM1 binding to CDKN1A; RCC4-PBRM1-BD4*, assay 1): 0.1332 | Flag ChIP at CDKN1A-TSS (PBRM1 binding to CDKN1A; RCC4-PBRM1-BD4*, assay 1): 0.204 | Flag ChIP at CDKN1A-intron (PBRM1 binding to CDKN1A; RCC4-PBRM1-BD4*, assay 1): 0.0594 | Flag ChIP at CDKN1A-RE1 (PBRM1 binding to CDKN1A; RCC4-PBRM1-BD4*, assay 2): 0.168 | Flag ChIP at CDKN1A-TSS (PBRM1 binding to CDKN1A; RCC4-PBRM1-BD4*, assay 2): 0.1814 | Flag ChIP at CDKN1A-intron (PBRM1 binding to CDKN1A; RCC4-PBRM1-BD4*, assay 2): 0.0845 | Flag ChIP at CDKN1A-RE1 (PBRM1 binding to CDKN1A; RCC4-PBRM1-BD4*, assay 3): 0.1906 | Flag ChIP at CDKN1A-TSS (PBRM1 binding to CDKN1A; RCC4-PBRM1-BD4*, assay 3): 0.171 | Flag ChIP at CDKN1A-intron (PBRM1 binding to CDKN1A; RCC4-PBRM1-BD4*, assay 3): 0.0675 | Flag ChIP at CDKN1A-RE1 (PBRM1 binding to CDKN1A; RCC4-PBRM1, assay 1): 0.118 | Flag ChIP at CDKN1A-TSS (PBRM1 binding to CDKN1A; RCC4-PBRM1, assay 1): 0.1053 | Flag ChIP at CDKN1A-intron (PBRM1 binding to CDKN1A; RCC4-PBRM1, assay 1): 0.1192 | Flag ChIP at CDKN1A-RE1 (PBRM1 binding to CDKN1A; RCC4-PBRM1, assay 2): 0.114 | Flag ChIP at CDKN1A-TSS (PBRM1 binding to CDKN1A; RCC4-PBRM1, assay 2): 0.1575 | Flag ChIP at CDKN1A-intron (PBRM1 binding to CDKN1A; RCC4-PBRM1, assay 2): 0.074 | Flag ChIP at CDKN1A-RE1 (PBRM1 binding to CDKN1A; RCC4-PBRM1, assay 3): 0.1263 | Flag ChIP at CDKN1A-TSS (PBRM1 binding to CDKN1A; RCC4-PBRM1, assay 3): 0.1136 | Flag ChIP at CDKN1A-intron (PBRM1 binding to CDKN1A; RCC4-PBRM1, assay 3): 0.066 | p21 enhancement by PBRM1 BD4* mutant after p53 activation (RCC4 cells): failed to enhance p21 expression | endogenous PBRM1 precipitated by p53 (endogenous PBRM1 and p53): increased the amount of endogenous PBRM1 precipitated | expression of p53 downstream targets after DNA damage, wild-type vs BD4* PBRM1 (Ren-01 PBRM1 KO cells): rescued by wild-type but not BD4* mutant PBRM1
